In US11135160B2, “Use of chlorogenic acid in preparing pharmaceuticals for treatment of LAG-3-mediated disease” (SICHUAN JIUZHANG BIOLOGICAL SCIENCE AND TECHNOLOGY CO. LTD, priority 2016, dated 2021):

Columns and labels:
LAG-3 gene [1] = assay: Expression of LAG-3 gene in JurkatE6-1 cells by RT-PCR; type: cell-based, human; conditions: 48 h, vs blank control group (*p<0.05)
Method: (§1) CLL cells and JurkatE6-1 cells in exponential phase of growth with good conditions were inoculated in 6 well plate at a concentration of 5×10^5/ml. Each kind of cells were set four groups, and each group has three repeat holes for administration. Amongst, three chlorogenic acid groups received the drug dissolved in blank 1640 medium (1 mL) at the desired concentration, while the blank control group received the same volume of blank 1640 medium.
(§2) Using RNA prep Pure cultured cell/bacteria total RNA extraction kit (centrifugal column), total RNA was extracted from cells, and the operative procedures were carried out as the instructions. The detailed extraction procedures are briefly described as follows:
(§3) Using cDNA first strand synthesis kit and the resultant RNA solution by above extraction, the corresponding first strand cDNA was synthesized. The detailed reverse transcription procedures were carried out according to the instructions, that is briefly described as follows:
(§4) Because EvaGreen fluorescent dye can produce strong fluorescence when binding with the double-stranded DNA, the total amount of DNA formed by reaction can be obtained by detecting the final fluorescence intensity. To the test tube, were added fluorescent dye, cDNA product synthesized in steps (1) and (2), LAG-3 primer (Forward primer SEQ ID NO: 1 5′-[…]-3′, downstream primer SEQ ID NO: 2 5′-[…]-3′), and well mixed, then subjected to RT-PCR measurement. Amongst, […] group was set for each sample for calculating the relative magnitude, to perform the relative quantitation.

LAG-3 [2] = assay: Content of LAG-3 in JurkatE6-1 cells, ELISA with human lymphocyte activation gene 3 detection kit; type: cell-based; conditions: 48 h
Method: (§5) CLL cells and JurkatE6-1 cells in exponential phase of growth with good conditions were inoculated in 6 well plate at a concentration of 5×10^5/ml. Each kind of cells were set four groups, and each group has three repeat holes for administration. Amongst, three chlorogenic acid groups received the drug dissolved in blank 1640 medium (1 mL) at the desired concentration, while the blank control group received the same volume of blank 1640 medium. [table] In this example, by ELISA experiment, the activity of LAG-3 in cells of each group was determined using human lymphocyte activation gene 3 detection kit. After cells of each group acted with corresponding drugs for 48 h, cell culture fluid of each group was collected and divided into two parts. The protein of one part was quantitated using BCA method, and the activity of LAG-3 in cells of each group was determined using human lymphocyte activation gene 3 detection kit, to calculate the content of LAG-3 in each group.

LAG-3 [3] = assay: Content of LAG-3 in CLL cells, ELISA with human lymphocyte activation gene 3 detection kit; type: cell-based; conditions: 48 h
Method: as §5

LAG-3 gene [4] = assay: Expression of LAG-3 gene in CLL cells by RT-PCR; type: cell-based, human; conditions: 48 h, vs blank control group (*p<0.05)
Method: as §1, §2, §3, §4

[5] = test system: CD3+T lymphocytes and CD4+T lymphocytes; assay: T cell proliferation in peripheral blood of GL261 glioma mice; type: in vivo, C57BL/6 mice; conditions: 40 mg/kg intraperitoneal, 7 days, vs saline control group
Method: GL261 glioma cells in exponential phase of growth were prepared as GL261 single cell suspension at a concentration of 5×10^5/μL. After anesthetized with 0.75% pentobarbital sodium at 6 μL/g, the hair at the puncture site was stripped, and the heads of mice were fixed with ALC-H mouse brain stereotactic apparatus for longitudinal incision of scalp. […] GL261 single cell suspension was injected using micro pump at 2.5 μL/min, and the pinpoint was sealed with bone wax, then the incision of scalp was carefully sutured. Totally, 35 mice were inoculated, and the remained 5 mice were normal. The dead mice were removed, and C57BL/6 mice inoculated with GL261 glioma cells were randomly divided to 3 groups, including the saline control group (NC group), chlorogenic acid injection group (CA group), and temozolomide (TMZ) positive control group. Amongst, CA group is intraperitoneally injected with 40 mg/kg chlorogenic acid everyday, NC group is injected with the same volume of saline, and TMZ treatment group orally takes 20 mg/kg temozolomide. [table] […] Detecting the proliferation status of T lymphocytes may reflect the strong/weak inhibitory action of LAG-3. […]

LAG-3 protein = assay: Immunohistochemistry of LAG-3 protein expression in in situ lesion of GL261 glioma mice; type: in vivo, C57BL/6 mice; conditions: 7 days, chlorogenic acid 40 mg/kg intraperitoneal, temozolomide 20 mg/kg oral, saline control 69%
Method: GL261 glioma cells in exponential phase of growth were prepared as GL261 single cell suspension at a concentration of 5×10^5/μL. After anesthetized with 0.75% pentobarbital sodium at 6 μL/g, the hair at the puncture site was stripped, and the heads of mice were fixed with ALC-H mouse brain stereotactic apparatus for longitudinal incision of scalp. […] GL261 single cell suspension was injected using micro pump at 2.5 μL/min, and the pinpoint was sealed with bone wax, then the incision of scalp was carefully sutured. Totally, 35 mice were inoculated, and the remained 5 mice were normal. The dead mice were removed, and C57BL/6 mice inoculated with GL261 glioma cells were randomly divided to 3 groups, including the saline control group (NC group), chlorogenic acid injection group (CA group), and temozolomide (TMZ) positive control group. Amongst, CA group is intraperitoneally injected with 40 mg/kg chlorogenic acid everyday, NC group is injected with the same volume of saline, and TMZ treatment group orally takes 20 mg/kg temozolomide. […]
After completion of experiment, in situ lesion of each group mice was cut, while the brain tissue of 5 remained normal mice mentioned in step 2.2 was cut. […] The immunohistochemical results were analyzed by semiquantitative method, and finally, the expression rate of LAG-3 protein in different tissue sample was subjected to statistical analysis.

[6] = high dose 100 μM, vs blank control group (*p<0.05)
[7] = middle dose 50 μM, vs blank control group (*p<0.05)

SMILES	expression level of LAG-3 gene (LAG-3 gene [1]; high dose 100 μM)	expression level of LAG-3 gene (LAG-3 gene [1]; low dose 10 μM)	expression level of LAG-3 gene (LAG-3 gene [1]; middle dose 50 μM)	content of LAG-3 (LAG-3 [2]; [6])	content of LAG-3 (LAG-3 [2]; low dose 10 μM)	content of LAG-3 (LAG-3 [2]; [7])	content of LAG-3 (LAG-3 [3]; [6])	content of LAG-3 (LAG-3 [3]; low dose 10 μM)	content of LAG-3 (LAG-3 [3]; [7])	expression level of LAG-3 gene (LAG-3 gene [4]; high dose 100 μM)	expression level of LAG-3 gene (LAG-3 gene [4]; low dose 10 μM)	expression level of LAG-3 gene (LAG-3 gene [4]; middle dose 50 μM)	percentage of CD3+T lymphocytes in peripheral blood lymphocytes [5]	percentage of CD4+T lymphocytes in peripheral blood lymphocytes [5]	average percentage of LAG-3 protein high expression (LAG-3 protein) [%]
O=C(/C=C/c1ccc(O)c(O)c1)O[C@@H]1C[C@](O)(C(=O)O)C[C@@H](O)[C@H]1O [chlorogenic acid, 3-o-caffeoylquinic acid]	obviously reduced	obviously reduced	obviously reduced	obviously different	lowered	obviously different	obviously different	lowered	obviously different	obviously different	obviously different	obviously different	obviously promote the proliferation	obviously promote the proliferation	23.78
Cn1nnc2c(C(N)=O)ncn2c1=O [temozolomide, reference compound]															44.83
